IC50, EC50 and solubility data for five compounds are collected here from ChEMBL document CHEMBL4420076, “Amylin and calcitonin receptor agonist” (2017).

One may read the IC50 as the concentration at which inhibition is half-maximal. The term EC50 denotes the concentration that produces a half-maximal response. A word on the solubility: it is the concentration that dissolves in the medium under given conditions. Low values mean a poorly soluble substance, high ones a readily soluble substance.

For data set [1], the target named is T1, Amylin receptor AMY3; CALCR/RAMP3 (Homo sapiens, UniProt O60896+P30988).
T1 sequence (P30988 whole entry): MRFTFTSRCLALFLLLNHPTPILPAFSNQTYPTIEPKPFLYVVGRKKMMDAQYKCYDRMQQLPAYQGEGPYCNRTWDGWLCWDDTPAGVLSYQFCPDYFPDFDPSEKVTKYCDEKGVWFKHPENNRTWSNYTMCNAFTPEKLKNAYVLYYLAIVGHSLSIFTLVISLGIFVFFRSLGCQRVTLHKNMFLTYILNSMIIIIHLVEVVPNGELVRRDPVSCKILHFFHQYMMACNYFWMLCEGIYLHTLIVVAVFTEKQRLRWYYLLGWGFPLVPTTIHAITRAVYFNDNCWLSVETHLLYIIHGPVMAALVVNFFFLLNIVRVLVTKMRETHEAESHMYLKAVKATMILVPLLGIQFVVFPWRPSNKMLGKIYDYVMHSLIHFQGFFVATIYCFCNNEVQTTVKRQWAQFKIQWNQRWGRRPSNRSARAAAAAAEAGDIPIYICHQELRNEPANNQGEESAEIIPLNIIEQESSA
T1 sequence (O60896 whole entry): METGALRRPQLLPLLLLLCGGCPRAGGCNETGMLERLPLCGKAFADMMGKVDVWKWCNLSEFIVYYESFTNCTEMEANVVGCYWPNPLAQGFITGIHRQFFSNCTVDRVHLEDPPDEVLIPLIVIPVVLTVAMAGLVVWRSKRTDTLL
Kind of data set: Displacement of [125I]-labeled rat amylin from human amylin receptor expressed in BHK tkts13 whole cells co-expressing RAMP3 incubated for 60 mins by scintillation proximity assay. The data set is classed as cell-based. For orientation: In a radioligand displacement assay an active substance lowers the binding of a labelled ligand.

Data set [2] has as its target T1, Amylin receptor AMY3; CALCR/RAMP3. In words: Agonist activity at human amylin receptor expressed in BHK570 cells co-expressing RAMP3 assessed as increase in intracellular cAMP concentration incubated for 3 hrs in absence of albumin by CRE luciferase reporter gene assay. The format is functional, cell-based.
Data set [3] is described as follows: Solubility in 100 mM bistrispropane buffer at pH 6.5 incubated for 18 hrs by UPLC analysis. The data set is classed as physicochemical.
Data set [4] is described as follows: Solubility in 100 mM bistrispropane buffer at pH 7.0 incubated for 18 hrs by UPLC analysis. The data set is classed as physicochemical.
Data set [5] in a line: Solubility in 100 mM bistrispropane buffer at pH 6.0 incubated for 18 hrs by UPLC analysis. The format is physicochemical.
A short description of data set [6]: Solubility in 100 mM bistrispropane buffer at pH 8.0 incubated for 18 hrs by UPLC analysis. The format is physicochemical.
Data set [7] is described as follows: Solubility in 100 mM glycylglycine buffer at pH 3.0 incubated for 18 hrs by UPLC analysis. The format is physicochemical.
A short description of data set [8]: Solubility in 100 mM bistrispropane buffer at pH 7.5 incubated for 18 hrs by UPLC analysis. The format is physicochemical.
In data set [9] the target is T2, Calcitonin receptor (Homo sapiens, UniProt P30988).
T2 sequence (P30988 whole entry): T1 sequence (P30988 whole entry)
In words: Agonist activity at human calcitonin receptor expressed in BHK570 cells assessed as increase in intracellular cAMP concentration incubated for 3 hrs in absence of albumin by CRE luciferase reporter gene assay. The format is functional, cell-based. (In general: Reporter assays use an easily measured gene product as a stand-in for the process of interest.)

A short description of data set [10]: Solubility in 100 mM glycylglycine buffer at pH 4.0 incubated for 18 hrs by UPLC analysis. The data set is classed as physicochemical.
Data set [11] addresses T2, Calcitonin receptor. In words: Agonist activity at human calcitonin receptor expressed in BHK570 cells assessed as increase in intracellular cAMP concentration incubated for 3 hrs in presence of 10% FBS by CRE luciferase reporter gene assay. The data set is classed as functional, cell-based.

Numbered stars: 1 amine (or outer) side, 2 acyl side, 3 side chain; on linkers, the order of the positions; unused ones are H or OH. Peptide text beside a SMILES is read from it. * marks the point of attachment. C20 diacid = O=C(O)CCCCCCCCCCCCCCCCCCC(=O)*; C18 diacid = O=C(O)CCCCCCCCCCCCCCCCC(=O)*; γGlu = O=C(O)[C@H](CCC(=O)[*:2])N[*:1]

As for `CC(C)C[C@H](NC(=O)[C@H](C)NC(=O)[C@H](C)NC(=O)[C@@H](NC(=O)[C@H](CO)NC(=O)[C@H](CC(C)C)NC(=O)[C@H](CCC(=O)O)NC(=O)[C@H](CO)NC(=O)[C@H](C)NC(=O)[C@@H](N)CCC(=O)O)[C@@H](C)O)C(=O)NCC(=O)N[C@@H](CCCNC(=N)N)C(=O)N[C@@H](CC(C)C)C(=O)N[C@@H](CO)C(=O)N[C@@H](C)C(=O)N[C@@H](CCC(=O)O)C(=O)N[C@@H](CC(C)C)C(=O)N[C@@H](Cc1cnc[nH]1)C(=O)N[C@@H](CCC(=O)O)C(=O)N[C@@H](CC(C)C)C(=O)N[C@@H](C)C(=O)N[C@H](C(=O)N[C@@H](CC(C)C)C(=O)N1CCC[C@H]1C(=O)N[C@@H](CCCNC(=N)N)C(=O)N[C@H](C(=O)N[C@@H](CCC(=O)O)C(=O)N[C@H](C(=O)NCC(=O)N1CCC[C@H]1C(=O)N[C@@H](CCC(=O)O)C(=O)N[C@@H](CO)C(=O)N1CCC[C@H]1C(=O)O)[C@@H](C)O)[C@@H](C)O)[C@@H](C)O` (H-EASELSTAALGRLSAELHELATLPRTETGPESP-OH), the concentration for half-maximal inhibition (IC50) in data set [1] was 294000 pM.
On to `CC[C@H](C)[C@H](NC(=O)[C@H](CCC(=O)O)NC(=O)[C@H](CO)NC(=O)[C@H](C)NC(=O)[C@H](CCC(=O)O)NC(=O)CCCCCCCCCCCCCCCCC(=O)O)C(=O)N[C@@H](CO)C(=O)N[C@H](C(=O)N[C@@H](C)C(=O)N[C@@H](C)C(=O)N[C@@H](CC(C)C)C(=O)NCC(=O)N[C@@H](CCCNC(=N)N)C(=O)N[C@@H](CC(C)C)C(=O)N[C@@H](CO)C(=O)N[C@@H](C)C(=O)N[C@@H](CCC(=O)O)C(=O)N[C@@H](CC(C)C)C(=O)N[C@@H](Cc1cnc[nH]1)C(=O)N[C@@H](CCC(=O)O)C(=O)N[C@@H](CC(C)C)C(=O)N[C@@H](C)C(=O)N[C@H](C(=O)N[C@@H](CC(C)C)C(=O)N1CCC[C@H]1C(=O)N[C@@H](CCCNC(=N)N)C(=O)N[C@H](C(=O)N[C@@H](CCC(=O)O)C(=O)N[C@H](C(=O)NCC(=O)N1CCC[C@H]1C(=O)N[C@@H](CCC(=O)O)C(=O)N[C@@H](CO)C(=O)N1CCC[C@H]1C(N)=O)[C@@H](C)O)[C@@H](C)O)[C@@H](C)O)[C@@H](C)O` ({C18 diacid}-EASEISTAALGRLSAELHELATLPRTETGPESP-NH2), for which, in data set [2], the EC50 is 7 pM. Further, the solubility at 18 h in data set [3], in [4], in data set [5], in [6], in data set [7] and in data set [8] was not below 200 µM in each case. Besides, in [1], the concentration for half-maximal inhibition (IC50) was 429 pM.
With `CC(C)C[C@H](NC(=O)[C@H](C)NC(=O)[C@H](C)NC(=O)[C@@H](NC(=O)[C@H](CO)NC(=O)[C@H](CC(C)C)NC(=O)[C@H](CCC(=O)O)NC(=O)[C@H](CO)NC(=O)[C@H](C)NC(=O)[C@H](CCC(=O)O)NC(=O)CCCCCCCCCCCCCCCCC(=O)O)[C@@H](C)O)C(=O)NCC(=O)N[C@@H](CCCNC(=N)N)C(=O)N[C@@H](CC(C)C)C(=O)N[C@@H](CO)C(=O)N[C@@H](C)C(=O)N[C@@H](CCC(=O)O)C(=O)N[C@@H](CC(C)C)C(=O)N[C@@H](Cc1cnc[nH]1)C(=O)N[C@@H](CCC(=O)O)C(=O)N[C@@H](CC(C)C)C(=O)N[C@@H](C)C(=O)N[C@H](C(=O)N[C@@H](CC(C)C)C(=O)N1CCC[C@H]1C(=O)N[C@@H](CCCNC(=N)N)C(=O)N[C@H](C(=O)N[C@@H](CCC(=O)O)C(=O)N[C@H](C(=O)NCC(=O)N1CCC[C@H]1C(=O)N[C@@H](CCC(=O)O)C(=O)N[C@@H](CO)C(=O)N1CCC[C@H]1C(=O)O)[C@@H](C)O)[C@@H](C)O)[C@@H](C)O` ({C18 diacid}-EASELSTAALGRLSAELHELATLPRTETGPESP-OH), the EC50 in data set [2] was 481 pM; in data set [9], 45 pM. In data set [1], the half-maximal inhibitory concentration (IC50) is 298000 pM.
`CC(C)C[C@H](NC(=O)[C@H](C)NC(=O)[C@H](C)NC(=O)[C@@H](NC(=O)[C@H](CO)NC(=O)[C@H](CC(C)C)NC(=O)[C@H](CCC(=O)O)NC(=O)[C@H](CO)NC(=O)[C@H](C)NC(=O)CC[C@H](NC(=O)CCCCCCCCCCCCCCCCCCC(=O)O)C(=O)O)[C@@H](C)O)C(=O)NCC(=O)N[C@@H](CCCNC(=N)N)C(=O)N[C@@H](CC(C)C)C(=O)N[C@@H](CO)C(=O)N[C@@H](C)C(=O)N[C@@H](CCC(=O)O)C(=O)N[C@@H](CC(C)C)C(=O)N[C@@H](Cc1cnc[nH]1)C(=O)N[C@@H](CCC(=O)O)C(=O)N[C@@H](CC(C)C)C(=O)N[C@@H](C)C(=O)N[C@H](C(=O)N[C@@H](Cc1ccc(O)cc1)C(=O)N1CCC[C@H]1C(=O)N[C@@H](CCCNC(=N)N)C(=O)N[C@H](C(=O)N[C@@H](CCC(=O)O)C(=O)N[C@H](C(=O)NCC(=O)N[C@@H](CO)C(=O)NCC(=O)N[C@@H](CO)C(=O)N[C@@H](Cc1ccc(O)cc1)C(=O)O)[C@@H](C)O)[C@@H](C)O)[C@@H](C)O` ({C20 diacid-γGlu}-ASELSTAALGRLSAELHELATYPRTETGSGSY-OH): the solubility at 18 h in data set [3], in data set [4], in data set [5], in data set [6], in data set [7] and in [8] was not below 200 µM each time. The IC50 in data set [1] is 92000 pM.
For `CC(C)C[C@H](NC(=O)[C@H](C)NC(=O)[C@H](C)NC(=O)[C@@H](NC(=O)[C@H](CO)NC(=O)[C@H](CC(C)C)NC(=O)[C@H](CCC(=O)O)NC(=O)[C@H](CO)NC(=O)[C@H](C)NC(=O)CC[C@H](NC(=O)CCCCCCCCCCCCCCCCCCC(=O)O)C(=O)O)[C@@H](C)O)C(=O)NCC(=O)N[C@@H](CCCNC(=N)N)C(=O)N[C@@H](CC(C)C)C(=O)N[C@@H](CO)C(=O)N[C@@H](C)C(=O)N[C@@H](CCC(=O)O)C(=O)N[C@@H](CC(C)C)C(=O)N[C@@H](Cc1cnc[nH]1)C(=O)N[C@@H](CCC(=O)O)C(=O)N[C@@H](CC(C)C)C(=O)N[C@@H](CO)C(=O)N[C@H](C(=O)N[C@@H](Cc1ccc(O)cc1)C(=O)N1CCC[C@H]1C(=O)N[C@@H](CCCNC(=N)N)C(=O)N[C@H](C(=O)N[C@@H](CCC(=O)O)C(=O)N[C@H](C(=O)NCC(=O)N[C@@H](CO)C(=O)NCC(=O)N[C@@H](CO)C(=O)N1CCC[C@H]1C(N)=O)[C@@H](C)O)[C@@H](C)O)[C@@H](C)O` ({C20 diacid-γGlu}-ASELSTAALGRLSAELHELSTYPRTETGSGSP-NH2), the EC50 was 33 pM in data set [2], 30 pM in data set [11] and 27 pM in [9]. The solubility at 18 h in [3], in data set [4], in [10], in data set [5], in data set [6] and in data set [7] was not below 200 µM throughout. The solubility at 18 h in data set [8] was not below 200 µM.
